Test results reported in PMC11872463, “Identification of a group of 9-amino-acridines that selectively downregulate regulatory T cell functions through FoxP3” (iScience, 2025).
Where a name gives a salt, the structure may show the parent alone. Read-outs that look alike come from different tables or passages of the source.

How the values were obtained:
FoxP3 [1] = molecular target: T1, FoxP3 (Homo sapiens, UniProt Q9BZS1); test: biochemical; set-up: SPR on Biacore T200, His-FoxP3 immobilized on CM5 chip, affinity
T1 construct: His-FoxP3 full-length (SPR); His-FoxP3-ΔN (182-421aa) (AlphaScreen, EMSA)
T1 sequence (Q9BZS1 182-421): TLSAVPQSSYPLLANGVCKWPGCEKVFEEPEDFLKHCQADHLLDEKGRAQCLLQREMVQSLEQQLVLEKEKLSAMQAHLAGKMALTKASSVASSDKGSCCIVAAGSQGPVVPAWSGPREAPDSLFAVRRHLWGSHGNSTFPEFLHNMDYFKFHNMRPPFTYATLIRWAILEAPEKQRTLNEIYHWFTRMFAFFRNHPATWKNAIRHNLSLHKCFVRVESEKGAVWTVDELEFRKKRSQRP
Procedure: To explore how 9-amino acridines downregulate FoxP3, directly or indirectly, a low-molecular-weight compound screening (low molecular weight [LMW] screen) was performed using surface plasmon resonance (SPR) analysis to determine affinities between FoxP3 and all the compounds listed in Table 1. […] In contrast, we observed low or no affinity for FoxP3 with compounds that had little or no effects on FoxP3 downregulation (such as MP20 and MP25). Furthermore, we confirmed the concentration-dependent binding of QDD and MP4 to immobilized FoxP3 protein (Figure S6B) with dissociation constant (KD) values corresponding to the observed IC50 in the cell-based assay, implying that the function of 9-amino-acridine analogs on FoxP3 regulation might be due to their direct binding ability. SPR, concentration-dependent binding to immobilized FoxP3 (KD not printed in main text); IC50 is from AlphaScreen FoxP3-DNA competition; EMSA on FoxP3 | we confirmed the concentration-dependent binding of QDD and MP4 to immobilized FoxP3 protein (Figure S6B)

FoxP3 [2] = molecular target: T1, FoxP3; test: SPR, concentration-dependent binding to immobilized FoxP3 (KD not given in main text); IC50 is from AlphaScreen FoxP3-DNA competition; EMSA
Text: SPR, concentration-dependent binding to immobilized FoxP3 (KD not printed in main text); IC50 is from AlphaScreen FoxP3-DNA competition; EMSA on FoxP3 | we confirmed the concentration-dependent binding of QDD and MP4 to immobilized FoxP3 protein (Figure S6B)

FoxP3 [3] = test system: T2, FoxP3; test: cells; set-up: species or system primary human CD3+ T cells; flow cytometry of FoxP3+ % in CD4+ T cells, normalized to mock (FoxP3 down-regulation); conditions: FoxP3 down-regulation in CD4+ T cells, 24 h
T2 construct: endogenous, primary CD4+ T cells
Procedure: To search for potential small molecular FoxP3 inhibitors, we screened the Prestwick library of approved drugs (1,522 compounds) for compounds that regulated the expression of FoxP3 using a novel high-throughput flow cytometry protocol. Primary CD3^+ T cells from healthy donors were treated with compounds from the Prestwick library at 10 μM for 16 h, followed by a high-throughput flow cytometry analysis measuring FoxP3% in CD4^+ T cells (for workflow, see Figure S1A). Compounds that reduced FoxP3 levels compared to DMSO were selected for further validation. The first verified hit was quinacrine dihydrochloride dihydrate (QDD), where we observed a concentration-dependent FoxP3 downregulation with an IC50 of less than 5 μM in all donors tested (Figures 1A and 1B; Table 1, group 0; Figure S2A). QDD was also confirmed to downregulate FoxP3 in Tregs by gating out CD127^+ cells in both non-stimulated and stimulated T cells (Figure S1B). […] In the first round, compounds MP2, MP3, MP4, and MP5 were identified to be working efficiently in downregulating FoxP3 levels (Table 1, group 2; Table S1; Figure S2C). […] Therefore, a small library of similar acridine and acridinone compounds (Table 1, group 3 and 4; Table S1; Figures S2D and S2E) was assembled by in-silico prediction and assessed for their effects on FoxP3 regulation. […]

SMILES: CCN(CC)CCCC(C)Nc1c2cc(OC)ccc2nc2cc(Cl)c(N)cc12 (centres unmarked) [MP4, 3-chloro-N9-[5-(diethylamino)pentan-2-yl]-7-methoxyacridine-2,9-diamine]
- Kd (FoxP3 [1]): 6.9 µM
- IC50 (FoxP3 [2]; read-out: IC50): 0.37 µM

SMILES: COc1cc(NC(C)CCCN)c2ncccc2c1 (centres unmarked) [Primaquine]
- IC50 (FoxP3 [3]): > 100 µM

SMILES: CCN(CC)CCCC(C)Nc1c2ccc(Cl)cc2nc2ccc(OC)cc12 (centres unmarked) [QDD, 6-chloro-N-[5-(diethylamino)pentan-2-yl]-2-methoxyacridin-9-amine dihydrate dihydrochloride]
- Kd (FoxP3 [1]): 4.09 µM
- IC50 (FoxP3 [2]): 2 µM
